{"source": "patent US5843955A", "about": "“Compound LK6-A” (Kyowa Hakko Kogyo Co., Ltd., priority 1995, dated 1998)", "key": {"L1210 cell": {"system": "L1210 cell", "conditions": "Tetrahedron Letters, 31, 3271 (1990); cited from earlier work"}, "[1]": {"system": "Nippostrongylus brasiliensis", "conditions": "U.S. Pat. No. 4,959,370; J. Am. Chem. Soc., 112, 1 (1990); cited from earlier work"}, "reverse transcriptase": {"system": "reverse transcriptase", "conditions": "U.S. Pat. No. 4,959,370; J. Am. Chem. Soc., 112, 1 (1990); cited from earlier work"}, "Solubility": {"assay": "Solubility", "assay_type": "physicochemical"}, "T cells": {"system": "T cells", "assay": "Growth inhibition against T cells in murine mixed lymphocyte reaction", "assay_type": "cell-based", "conditions": "Mus musculus, T-cell; 72 hours at 37° C., [^3 H]Thymidine incorporation (added 18 hours before end); read-out: 50% inhibitory concentration (IC50) against the growth of T cells in murine mixed lymphocyte reaction", "procedure": "Growth inhibition against T cells in murine mixed lymphocyte reaction\nLymph node was aseptically excised from a B10.BR mouse (Japan SLC Inc.) with a solution comprising Hanks' […] salt solution (HBSS, Gibco) and 2.5% fetal calf serum (FCS, Gibco) (hereinafter referred to as HBSS-FCS) and resuspended into a culture medium (RPMI 1640, Nissui) containing 10% fetal calf serum (FCS, Gibco), 1% 200 mM L-Gultamine (Gibco), 1% Penicillin-Streptoymycin liquid (Gibco), 5% NCTC-109 (Gibco), 1% 1M HEPES (Gibco), 7.5% NaHCO3 (SIGMA) and 0.1% 50 mM 2-mercaptoethanol (Nakarai) (hereinafter referred to as RPMI 1640-FCS) to prepared a single cell suspension to give a density of 3×10^6 cells/ml. […]\n[^3 H]Thymidine was added to the wells in an amount of 1.0 μCi/well 18 hours before the end of each incubation. […] A toluene scintillator was added to the cells, and the amount of [^3 H]Thymidine radioactivity incorporated into the cells was determined using a liquid scintillation counter. The T cell growth inhibition rate was calculated according to the following equation. […]\nC: Amount of [^3 H]Thymidine radioactivity incorporated into the mixed cell suspension\nT: Amount of [^3 H]Thymidine radioactivity incorporated into the LK6-A-treated mixed cell suspension\nA: Amount of [^3 H]Thymidine radioactivity incorporated into only the B10.BR murine lymph node cells. […]"}}, "data": [{"molecule": "plakinidine A", "values": [{"measurement": "cytotoxic activity against the L1210 cell", "setting": "L1210 cell", "result": "cytotoxic activity"}, {"measurement": "activity against a parasite Nippostrongylus brasiliensis", "setting": "[1]", "result": "activity"}, {"measurement": "reverse transcriptase inhibitory activity", "setting": "reverse transcriptase", "result": "reverse transcriptase inhibitory activity"}]}, {"molecule": "CO/C=C/C(=O)c1cc2c3c(c(N)cc(NC(C)=O)c3n1)N=C2", "note": "[LK6-A]", "values": [{"measurement": "Solubility", "setting": "Solubility; chloroform", "result": "sparingly soluble"}, {"measurement": "Solubility", "setting": "Solubility; dimethylsulfoxide (DMSO)", "result": "Soluble"}, {"measurement": "Solubility", "setting": "Solubility; hexane", "result": "insoluble"}, {"measurement": "Solubility", "setting": "Solubility; methanol", "result": "sparingly soluble"}, {"measurement": "Solubility", "setting": "Solubility; water", "result": "sparingly soluble"}, {"measurement": "IC50", "setting": "T cells", "result": 9, "unit": "nM"}]}, {"molecule": "CNc1c2ncc3c4ccccc4[nH]c(c4nccc(=O)c14)c23", "note": "[plakinidine C]", "values": [{"measurement": "cytotoxic activity against the L1210 cell", "setting": "L1210 cell", "result": "cytotoxic activity"}]}, {"molecule": "plakinidine B", "values": [{"measurement": "cytotoxic activity against the L1210 cell", "setting": "L1210 cell", "result": "cytotoxic activity"}, {"measurement": "activity against a parasite Nippostrongylus brasiliensis", "setting": "[1]", "result": "activity"}]}]}
